Laboratory results as given in patent publication US20110152166A1, “METHOD OF MODULATION OF PROTEIN PHOSPHORYLATION-DEPENDENT CONFORMATIONAL TRANSITIONS WITH LOW MOLECULAR WEIGHT COMPOUNDS” (priority 2006, published 2011).

Legend:
[1] = target: GST-S6K11-365 (Rattus norvegicus, UniProt P67999); assay: Global amide hydrogen exchange (HXMS); design: made in house; details: early time points; peptide 150 molar excess
Text: (A) Effect of S6K1 tail peptides, described in the legend to FIG. 13, on global deuteron uptake by purified GST-56K11-365. (B) Kinase activity of wt and mutant GST-PKCζ. (C) Global deuteron uptake by wt and mutant GST-PKCζ. (D) Local deuteron uptake by wt and mutant GST-PKCζ. In the PKCζ model, peptides showing strong and no-or-slight protection by the tail phosphate are shown in pink and grey, respectively. The panels show HX curves of the peptides. Experiments were repeated 2 times (A, C, D) or 3 times (B) and data are means±range (A, C) or ±SD (B)
Amide hydrogen (^1H/^2H) exchange monitored by mass spectrometry (HXMS). D2O (99.9 atom % D) was obtained from Cambridge Isotope Laboratories. Isotopic exchange was initiated by diluting 8 μl 20-40 μM protein in 300 μl deuterated buffer (25 mM Tris, 150 mM NaCl, 1 mM dithiothreitol, 10 mM MgCl2, 25 mM glutathione, pD 7.1 uncorrected value). The exchange was carried out at 30° C., and 75 μl aliquots were collected after 1 min, 5 min, 15 min, and 45 min. […]
The LC setup was described previously (Jorgensen et al., 2004), with the modification that proteins were desalted for 5 min and eluted with a 9 min linear gradient (14% to 70% acetonitrile, 0.05% TFA) to separate the free GST from the GST-tagged kinases of interest in the global hydrogen exchange analysis. […] The HXMS data on peptide level were analyzed by HX-Express (Weis et al., 2006). […]

[2] = target: T1, PKBa[Ser473Asp] (Homo sapiens, UniProt P31749, S473D); assay: AGC kinase panel activity assay (Crosstide); format: biochemical
T1 construct: made in house; host or cells: HEK293
T1 sequence (P31749 whole entry S473D): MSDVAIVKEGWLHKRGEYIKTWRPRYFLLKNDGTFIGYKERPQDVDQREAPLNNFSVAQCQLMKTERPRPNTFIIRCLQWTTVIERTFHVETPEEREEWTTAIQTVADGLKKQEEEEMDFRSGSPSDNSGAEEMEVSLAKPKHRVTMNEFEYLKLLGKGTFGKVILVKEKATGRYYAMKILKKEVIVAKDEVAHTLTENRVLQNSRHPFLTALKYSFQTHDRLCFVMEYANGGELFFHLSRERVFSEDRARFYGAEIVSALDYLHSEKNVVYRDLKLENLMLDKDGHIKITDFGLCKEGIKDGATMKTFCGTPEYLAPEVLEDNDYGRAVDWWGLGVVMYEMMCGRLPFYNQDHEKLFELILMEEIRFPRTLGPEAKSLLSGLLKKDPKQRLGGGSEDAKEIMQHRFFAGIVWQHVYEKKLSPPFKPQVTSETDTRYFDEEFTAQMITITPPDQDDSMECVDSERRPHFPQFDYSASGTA
Procedure: (§1) Protein kinase activity tests were performed essentially as previously described (Balendran et al., 2000; Biondi et al., 2000; Biondi et al., 2001). Substrates used were either MBP (for PKCζ or polypeptides (Crosstide for PKB, S6K, SGK and PRK2; T308tide for PDK1, and Kemptide for PKA). PKA (Sigma) was measured in the presence of 100 μM cAMP. Alternatively, assays were performed in a 96 well format, aliquots spotted on p81 phosphocellulose papers (Whatmann), washed in 0.01% phosphoric acid, dried, and then exposed and analysed using Phospholmager technology (Storm, Molecular Dynamics). Activity measurements were performed in duplicates with less than 10% difference between duplicate pairs. Experiments were repeated at least twice, although most of the experiments were repeated multiple times, with similar results.
(§2) Activity assays for each kinase were performed as described in Materials and Methods in the presence of 1% DMSO (100%). Except PKA, all protein kinases were produced as a GST-fusion. S6K1, PKBα, SGK mutants used were S6K1-T2-[Thr412Glu], PKBa[Ser473Asp] and ΔN-SGK[Ser422Asp].

[3] = target: T2, PRK2 (Homo sapiens, UniProt Q16513); assay: AGC kinase panel activity assay (Crosstide); format: biochemical; details: for PRK2 (%) activity: 1% DMSO = 100%
T2 construct: made in house; host or cells: HEK293
T2 sequence (Q16513 501-984): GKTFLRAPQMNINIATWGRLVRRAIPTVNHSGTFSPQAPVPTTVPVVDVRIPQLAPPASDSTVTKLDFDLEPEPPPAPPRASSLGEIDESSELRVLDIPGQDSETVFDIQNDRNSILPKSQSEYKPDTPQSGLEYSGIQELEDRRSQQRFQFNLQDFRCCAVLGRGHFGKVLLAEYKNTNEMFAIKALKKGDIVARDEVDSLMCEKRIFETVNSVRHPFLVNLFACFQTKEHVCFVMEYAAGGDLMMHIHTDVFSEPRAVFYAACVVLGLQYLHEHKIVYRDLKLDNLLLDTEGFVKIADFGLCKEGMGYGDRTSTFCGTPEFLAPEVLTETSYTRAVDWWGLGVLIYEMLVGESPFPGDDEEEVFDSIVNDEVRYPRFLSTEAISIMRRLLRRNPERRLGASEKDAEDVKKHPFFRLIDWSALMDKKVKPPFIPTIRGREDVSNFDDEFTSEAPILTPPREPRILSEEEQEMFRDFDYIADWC
Procedure: as §1, §2

[4] = target: T3, S6K1-T2-[Thr412Glu] (Homo sapiens, UniProt P23443, T412E); assay: AGC kinase panel activity assay (Crosstide); format: biochemical; details: for S6K1 (%) activity: 1% DMSO = 100%
T3 construct: made in house; host or cells: HEK293
T3 sequence (P23443 1-421 T412E limits assumed): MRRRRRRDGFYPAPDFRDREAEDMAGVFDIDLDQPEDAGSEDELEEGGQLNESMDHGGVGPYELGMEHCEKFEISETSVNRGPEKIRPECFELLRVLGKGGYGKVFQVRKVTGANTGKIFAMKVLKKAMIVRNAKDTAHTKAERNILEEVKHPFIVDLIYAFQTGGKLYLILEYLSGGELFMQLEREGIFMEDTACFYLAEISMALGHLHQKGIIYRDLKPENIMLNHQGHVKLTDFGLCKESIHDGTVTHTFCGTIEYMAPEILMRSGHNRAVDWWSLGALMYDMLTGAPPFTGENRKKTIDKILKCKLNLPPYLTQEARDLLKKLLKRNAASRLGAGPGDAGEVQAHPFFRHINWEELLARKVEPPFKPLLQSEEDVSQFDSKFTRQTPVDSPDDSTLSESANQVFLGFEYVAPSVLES
Procedure: as §1, §2

[5] = target: T4, ΔN-SGK[Ser422Asp] (Homo sapiens, UniProt O00141, S422D); assay: AGC kinase panel activity assay (Crosstide); format: biochemical; details: for SGK1 (%) activity: 1% DMSO = 100%
T4 construct: made in house; host or cells: HEK293
T4 sequence (O00141 61-431 S422D limits assumed): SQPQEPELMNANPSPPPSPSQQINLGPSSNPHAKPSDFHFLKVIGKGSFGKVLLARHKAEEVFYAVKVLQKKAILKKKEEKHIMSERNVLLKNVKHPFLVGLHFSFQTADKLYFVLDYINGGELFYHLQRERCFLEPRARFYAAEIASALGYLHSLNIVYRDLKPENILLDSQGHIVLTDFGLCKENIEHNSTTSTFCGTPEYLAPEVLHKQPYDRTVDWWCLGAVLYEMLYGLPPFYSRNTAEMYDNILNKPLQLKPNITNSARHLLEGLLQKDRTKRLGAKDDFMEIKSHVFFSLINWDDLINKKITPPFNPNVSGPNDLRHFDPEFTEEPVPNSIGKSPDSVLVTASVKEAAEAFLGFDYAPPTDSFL
Procedure: as §1, §2

Chain of GST-S6K11-365 (P67999 24-388): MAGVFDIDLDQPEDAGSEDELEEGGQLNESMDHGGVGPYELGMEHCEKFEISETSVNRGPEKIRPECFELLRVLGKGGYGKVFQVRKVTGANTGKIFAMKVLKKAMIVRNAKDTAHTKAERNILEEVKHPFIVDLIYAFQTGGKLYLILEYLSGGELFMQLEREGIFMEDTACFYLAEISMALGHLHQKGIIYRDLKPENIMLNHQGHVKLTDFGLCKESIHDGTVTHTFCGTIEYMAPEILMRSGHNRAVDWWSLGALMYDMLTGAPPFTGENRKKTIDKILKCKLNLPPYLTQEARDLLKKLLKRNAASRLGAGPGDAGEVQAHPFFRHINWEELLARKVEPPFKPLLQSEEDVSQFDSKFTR

fewer deuterons incorporated in S6K11-365 versus no peptide [1] | PKBα (%) activity ([2]; 20 μM compound, 1% DMSO = 100%) [%] | PKBα (%) activity ([2]; 200 μM compound, 1% DMSO = 100%) [%] | PRK2 (%) activity ([3]; 20 μM compound) [%] | PRK2 (%) activity ([3]; 200 μM compound) [%] | S6K1 (%) activity ([4]; 20 μM compound) [%] | S6K1 (%) activity ([4]; 200 μM compound) [%] | SGK1 (%) activity ([5]; 20 μM compound) [%] | SGK1 (%) activity ([5]; 200 μM compound) [%] | effect on PKBa/AKT1 activity (in words) ([2]; 20 μM) | activity at 20 µM ([2]; 20 μM compound, 1% DMSO = 100%, read-out: PKBα (%) activity) [%] | activity at 200 µM ([2]; 200 μM compound, 1% DMSO = 100%, read-out: PKBα (%) activity) [%] | effect on PRK2 activity (in words) ([3]; 20 μM) | effect on S6K activity (in words) ([4]; 20 μM) | effect on SGK1 activity (in words) ([5]; 20 μM) | Compound
no effect |  |  |  |  |  |  |  |  |  |  |  |  |  |  | S371/T389: synthetic S6K1 tail peptide (residues 366-395), non-phosphorylated
≈ 10 deuterons |  |  |  |  |  |  |  |  |  |  |  |  |  |  | S371/pT389: synthetic S6K1 tail peptide (residues 366-395) phosphorylated in the HM
 | 92 | 106 | 106 | 89 | 109 | 120 | 89 | 92 |  |  |  |  |  |  | COC(=O)CSC(CC(=O)c1ccc(Cl)cc1)c1ccccc1 (stereo not shown) [Compound 2]
 |  |  | 103 | 110 | 109 | 110 | 97 | 61 | no significant effect | 89 | 85 | no significant effect | no significant effect | no significant effect | O=C(O)CSC(CC(=O)c1ccc(Cl)cc1)c1ccccc1 (stereo not shown) [Compound 1]
